The test system of one data set is rat brain homogenates. The note with it: cited from earlier work.
A further data set has as its system collagenase. The note with it: cited from earlier work.
The test system of another data set is Aquaporin 3. The note with it: skin substitute EpiDermFT; cited from earlier work.
A further data set deals with E-cadherin. The note with it: skin substitute EpiDermFT; cited from earlier work.
The subject of another data set is elastase. The note with it: relative to retinol; cited from earlier work.
Another data set has as its system Epiderm human skin model. The note with it: pH 7.4.

Experimental for Epiderm human skin model: The irritant potential of the extract was evaluated in vitro, by the colorimetric method (MTT), using the reconstructed epidermis model "EpiDerm® (MatTek Corporation).
In order to determine the safety of birch extract in cosmetics, a method was used to determine the irritant potential using the Epiderm human skin model, which contains a multilayered differentiated epidermis. In this method, the exposure time at which a 50% reduction in the number of viable cells (ET50) occurs is assessed. This number is assessed by measuring the reduction of MTT - 3-(4,5-dimethylthiaz-2-yl)-2-5-diphenyltetrazolium bromide). Formazan, which is blue-violet in colour, is formed as a result of mitochondrial metabolism. Formazan formation allows assessment of the number of cells that have been damaged. A chemical is classified as an irritant if the cell survival rate relative to a negative sample (containing neutral solvent) is below 50%.
The test consisted of applying an appropriate amount of a solution of the test compound to the surface of the epidermis model. Birch extract solutions of 0.25 per cent and 0.5 per cent by weight were prepared, corresponding to the content of this active ingredient in cosmetic preparations. […]

For the compound `C=C[C@@](C)(/C=C/c1ccc(OC)cc1)CCC=C(C)C` [O-methylbakuchiol], the lipid peroxidation entry in the data set on rat brain homogenates was “inhibited”.

With `CC1=C(/C=C/C(C)=C/C=C/C(C)=C/CO)C(C)(C)CCC1` [Retinol], the “inhibits collagenase, effectiveness” value in the data set with collagenase is “not affected at all”. In the data set on Aquaporin 3, the AQP3 gene expression is listed as 3.5. In addition, in the data set with E-cadherin, the CDH1 gene expression is given as 9.4.

Consider `C=C[C@@](C)(/C=C/c1ccc(O)cc1)CCC=C(C)C` [Bakuchiol], for which the “inhibits collagenase, effectiveness” value in the data set with collagenase is 50%. Further, the AQP3 gene expression with Aquaporin 3 is given as 4.3. Further, the “inhibits elastase, compared with retinol” value in the data set with elastase is “almost nine times more strongly than retinol”. Further, the CDH1 gene expression in the data set with E-cadherin is reported as 21.6.

With `CCCCCCCCCCCCOS(=O)(=O)[O-].[Na+]` [SLS], the “Relative cell viability [%]” value in the data set with Epiderm human skin model is listed as 6.03%.
